Reference: patent US20240109855A1, “ANTI-QUORUM SENSING, ANTI-BIOFILM, AND INFLAMMATION ATTENUATING COMPOUNDS, COMPOSITIONS, AND METHODS OF USING SAME” (priority 2021, published 2024)
Entries after “also recorded” stand apart in the source; their conditions may differ.

Assays:
[1] = tested on: quorum sensing (CV026 and KYC55); assay: Quorum sensing inhibition, overall statement over the bio-reporter bacteria; type: cell-based
How it was run: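 Compounds (20 μl of 40 mM acetonitrile stock) were spotted on TLC plates overlaid with reporter in soft agar: CV026 with 500 nM 3-oxo-C6 (purple pigment) or KYC55 with 5 nM 3-oxo-C8 and 60 μg/ml X-gal (blue pigment). After overnight incubation at 30 °C, the pigment-free inhibition zone was measured.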

[2] = tested on: gram-positive and gram-negative bacteria; assay: Antibacterial activity, overall statement (diffusion discs test); type: cell-based; details: Table 6 summary; also: key: +: active; −: inactive
How it was run: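 Compounds in acetonitrile at 40 mM, 20 μl dried onto filter paper discs, laid on lawns of B. subtilis, S. aureus, A. baumannii (LB agar) or S. sobrinus, S. mutans (BHI agar) from overnight cultures. Incubated overnight at 37° C; inhibition zone diameter measured.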

in vitro = details: human, LC50
How it was run: (§1)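 30,000 cells/well exposed to coumaperine derivatives at varying concentrations or DMSO vehicle for 48 h at 37 °C, 5% CO2, then XTT added for 2 h. Absorbance at 450 nm minus 650 nm and blank, normalized to DMSO-treated cells (100% viability); triplicate, two independent tests, mean+SD.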

L428 cells = assay: in vitro
How it was run: as §1

rhlR-rhlI system = assay: Bioluminescence QS reporter bacteria, rhlRI; type: cell-based, P. aeruginosa; details: Pseudomonas aeruginosa
Method: (§2) FIGS. 13A-13C include vertical bar graphs showing the dose response inhibition of QS by PL-18. Bioluminescence indicator bacteria containing the P. aeruginosa reporter genes rhlRI (13A) and lasRI (13B) were used. The reporter bacteria were incubated with and range of PL-18 concentrations or DMSO, together with (+AI) or without (−AI) the proper auto-inducer. Bioluminescence was recorded at 15 min intervals for 10 hrs at 37° C. The maximum signal in each group was normalized to the inducer's bioluminescence maximum signal with 0.5% DMSO. Mean±SD, One-way ANOVA followed by Dunett's multiple comparisons test was performed (p-value ***≤0.0002). N=9 (triplicate samples in three independent experiments). (13C) RT-qPCR of P. aeruginosa (PA01) QS genes. PA01 was co-incubated with two doses of PL-18 for seven hours, lysed and total RNA was extracted and converted to cDNA followed by target genes qPCR amplification. N≥16, Mean±SD. Two-way ANOVA, 95% confidence interval.
(§3) The inhibition of rhlR-rhlI system was slightly better than the inhibition of lasR-lasI. […] The relative transcription levels of QS genes lasR, lasI, rhlR and rhlI, was determined by RT-qPCR.

lasR-lasI = assay: Bioluminescence QS reporter bacteria, lasRI; type: cell-based, P. aeruginosa; details: Pseudomonas aeruginosa
Method: as §2, §3

elastase = assay: Elastase secretion by P. aeruginosa; type: cell-based; details: data not shown
P. aeruginosa = assay: Motility of P. aeruginosa; type: cell-based; details: data not shown

## COc1cc(/C=C/C(=O)N2CCC=CC2=O)cc(O)c1O [PL-18, Dihydroxy piperlongumine]
[1]; Table 6 summary
  QSI: +
[1]; running text
  QSI activity overall, in words: moderate
[2]
  Antibacterial: −
In vitro
  CC50 at 48 h: 9.3 µM
L428 cells
  Cytotoxic: +
rhlR-rhlI system; read-out: IC50, rhlR-rhlI
  IC50: 18 µM
rhlR-rhlI system; read-out: Inhibition of rhlR-rhlI
  inhibition at 160 µM: 85.6%
lasR-lasI; read-out: IC50, lasR-lasI
  IC50: 22 µM
lasR-lasI; read-out: lasR-lasI inhibition
  inhibition at 160 µM: 76.8%
elastase
  Inhibition of elastase secretion: not shown to inhibit; also recorded: not found to inhibit
P. aeruginosa
  Inhibition of motility: not shown to inhibit; also recorded: not found to inhibit
